Where a name gives a salt, the structure may show the parent alone. Read-outs that look alike come from different tables or passages of the source. Where a SMILES comes first, the peptide text is derived from it. The star is where a group is joined. Tfa = O=C(C(F)(F)F)*

The source of these data is publication PMC7802075 (ACS Infectious Diseases, 2020).

The assay has as its target T1, LmjIPCS (inositol phosphorylceramide synthase from L. major) (Leishmania major, UniProt E9AFX2).
T1 sequence (E9AFX2 1-338): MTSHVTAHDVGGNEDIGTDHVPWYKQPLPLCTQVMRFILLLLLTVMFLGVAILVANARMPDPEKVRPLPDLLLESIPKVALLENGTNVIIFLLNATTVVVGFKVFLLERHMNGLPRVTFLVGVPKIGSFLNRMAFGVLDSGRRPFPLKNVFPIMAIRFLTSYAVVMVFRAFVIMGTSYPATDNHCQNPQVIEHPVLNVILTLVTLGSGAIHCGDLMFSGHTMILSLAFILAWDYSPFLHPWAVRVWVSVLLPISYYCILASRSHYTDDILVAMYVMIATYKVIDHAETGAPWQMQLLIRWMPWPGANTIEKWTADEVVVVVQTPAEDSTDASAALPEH
The assay can be described thus: biochemical. The format is biochemical. Further details: inhibition: dose or concentration left out as unconfirmed. The conditions noted are these: for inhibition at 20000 µM: read-out: 20mM inhibition LmjIPCS; for inhibition: read-out: inhibition LmjIPCS.

The mark [1] stands for this setting: NINDS set screen, compound at 20mM (so in the source).
Where [2] appears, read: screening of NINDS set, sheet Screen 1.
The mark [3] stands for this setting: NINDS set screen, single concentration printed as 20mM.

Consider `COc1ccc2cc([C@H](C)C(=O)O)ccc2c1` [NAPROXEN(+)], for which the “20mM inhibition LmjIPCS” value under setting [1] was found to be 18%.

As to `O=c1c2ccccc2[se]n1-c1ccccc1` [EBSELEN], the “20mM inhibition LmjIPCS” value is listed as 42%.

On to `CCCCCC(=O)O[C@]1(C(C)=O)CC[C@H]2[C@@H]3CCC4=CC(=O)CC[C@]4(C)[C@H]3CC[C@@]21C` [HYDROXYPROGESTERONE CAPROATE], for which the “20mM inhibition LmjIPCS” value came out at 57%.

Take `COc1cccc(OC)c1C(=O)N[C@@H]1C(=O)N2[C@@H]1SC(C)(C)[C@@H]2C(=O)O` [METHICILLIN]: the inhibition (commonly the drop in the measured response relative to a control, in per cent) at 20000 µM was found to be 17%.

As for `S=P(N1CC1)(N1CC1)N1CC1` [THIOTEPA], the inhibition at 20000 µM was 11%.

As to `CCCc1cc(C(N)=S)ccn1` [PROTHIONAMIDE], under setting [2], the inhibition amounted to 9%.

For `NC[C@H]1CC[C@H](C(=O)O)CC1` [TRANEXAMIC ACID], under setting [2], the inhibition was 2.2%.

On to `CCCC(C)(COC(N)=O)COC(=O)NC(C)C` (centres unmarked) [CARISOPRODOL], for which the “20mM inhibition LmjIPCS” value is 52%.

For `Cc1ncc([N+](=O)[O-])n1CCO` [METRONIDAZOLE], the inhibition was determined as 7%.

Take `CC(=O)OCC(CCn1cnc2cnc(N)nc21)COC(C)=O` [FAMCICLOVIR]: the inhibition at 20000 µM came out at 1.36%.

On to `Cc1cc(=O)n(-c2ccccc2)n1C` [ANTIPYRINE], for which the “20mM inhibition LmjIPCS” value was 36%.

Consider `CC1CCC(NC(=O)N(CCCl)N=O)CC1` (centres unmarked) [SEMUSTINE], for which the inhibition at 20000 µM stood at 15%.

As for `Oc1c(I)cc(I)c2cccnc12` [IODOQUINOL], the inhibition (NINDS set screen) stood at 23%.

Regarding `CC1(C)O[C@@H]2[C@@H](CO[C@@]3(COS(N)(=O)=O)OC(C)(C)O[C@@H]23)O1` [TOPIRAMATE], the inhibition (NINDS set screen) was determined as 16%.

With `CC(=O)O[C@H]1C(=O)[C@@]2(C)[C@H]([C@H](OC(=O)c3ccccc3)[C@]3(O)C[C@H](OC(=O)[C@H](O)[C@@H](NC(=O)c4ccccc4)c4ccccc4)C(C)=C1C3(C)C)[C@]1(OC(C)=O)CO[C@@H]1C[C@@H]2O` [PACLITAXEL], the inhibition was 0.0705%.

As to `NCCCC(=O)O` [gamma-AMINOBUTYRIC ACID], the inhibition is -20%.

Consider `CC1=C(C(=O)O)N2C(=O)[C@@H](NC(=O)[C@H](N)C3=CCC=CC3)[C@H]2SC1` [CEPHRADINE], for which the “20mM inhibition LmjIPCS” value is 40%.

For `O=C(O)C(O)C(O)C(=O)O.OCc1cccnc1` (centres unmarked) [NICOTINYL], the “20mM inhibition LmjIPCS” value is 6%.

On to `COc1ccc(OC)c(C(O)CNC(=O)CN)c1` (centres unmarked) [MIDODRINE], for which the inhibition at 20000 µM was 13%.

On to `C[C@H]1c2cccc(O)c2C(=O)C2=C(O)[C@]3(O)C(=O)C(C(N)=O)=C(O)[C@@H](N(C)C)[C@@H]3[C@@H](O)[C@@H]21` [DOXYCYCLINE], for which the inhibition (NINDS set screen) was 30%.

`c1ccc2c(c1)sc1ccccc12` [DIBENZOTHIOPHENE]: the inhibition at 20000 µM amounted to 32%.

Take `CC12CCC(CC1)C(C)(C)O2` [CINEOLE]: under “NINDS set screen”, the inhibition was -13%.

Take `C=C(C)[C@@H]1CC[C@]2(C(=O)O)CC[C@]3(C)[C@H](CC[C@@H]4[C@@]5(C)CC[C@H](O)C(C)(C)[C@@H]5CC[C@]43C)[C@@H]12` [BETULINIC ACID]: the inhibition at 20000 µM is 21%.

Take `CC1(C)S[C@@H]2[C@H](N3C(=O)[C@@H](c4ccccc4)NC3(C)C)C(=O)N2[C@H]1C(=O)O` [HETACILLIN]: under setting [2], the inhibition was found to be 2%.

`CC(C)[C@H](NC(=O)[C@H](Cc1ccc(O)cc1)NC(=O)[C@@H](NC(=O)C(F)(F)F)C(C)C)C(=O)O` [Tfa-VAL-TYR-VAL-OH] (Tfa-Val-Tyr-Val-OH): the inhibition at 20000 µM was found to be 7.54%.

Regarding `CC[C@]12CCCN3CCc4c(n(c5ccccc45)C(=O)C1)[C@@H]32` [VINBURNINE], the “20mM inhibition LmjIPCS” value under setting [3] stood at 55%.

Consider `COc1cc2c3cc1Oc1c(OC)c(OC)cc4c1[C@@H](Cc1ccc(O)c(c1)Oc1ccc(cc1)C[C@@H]3N(C)CC2)N(C)CC4` [BERBAMINE], for which the inhibition at 20000 µM is 18%.

Turning to `CC(=O)N[C@@H](CCC(=O)O)C(=O)O` [ACET[…]], the inhibition at 20000 µM is -20%.

On to `CC(=O)Oc1cccc(O)c1` [RESORCINOL MONOACETATE], for which the inhibition under setting [2] is 4%.

Take `CC(=O)N[C@@H](CC(C)C)C(=O)O` [ACETYL-L-LEUCINE]: the inhibition at 20000 µM stood at 8%.

Regarding `c1coc(CNc2ncnc3[nH]cnc23)c1` [KINETIN], the inhibition stood at 16%.

Turning to `CC1(C)[C@@H](O)CC[C@]2(C)[C@H]3C(=O)C=C4[C@H]5C[C@@](C)(C(=O)O)CC[C@]5(C)CC[C@@]4(C)[C@]3(C)CC[C@@H]12`, the inhibition at 20000 µM is 7%.

As to `[N-]=[N+]=CC(=O)OC[C@H](N)C(=O)O` [AZASERINE], the inhibition at 20000 µM was 14%.

For the compound `Oc1c(Br)cc(Br)c2cccnc12` [BROXYQUINOLINE], the “20mM inhibition LmjIPCS” value is given as 61%.

With `O=C1c2c(O)ccc(O)c2C(=O)c2c(NCCNCCO)ccc(NCCNCCO)c21` [MITOXANTHRONE], under setting [3], the “20mM inhibition LmjIPCS” value is given as 63%.

Take `CCCCC(=O)Oc1ccccc1C(=O)O` [VALERYL SALYCILATE]: the inhibition at 20000 µM is 10%.

Consider `CCCNC(=O)NS(=O)(=O)c1ccc(Cl)cc1` [CHLORPROPAMIDE], for which, under setting [3], the “20mM inhibition LmjIPCS” value amounted to 55%.

For `C[C@]12CCC(=O)C=C1CC[C@@H]1[C@@H]2[C@@H](O)C[C@@]2(C)[C@H]1CC[C@]2(O)C(=O)COC(=O)CCC(=O)O` [HYDROCORTISONE HEMISUCCINATE], the “20mM inhibition LmjIPCS” value under setting [1] is on record as 18%.

For the compound `N[C@@H](Cc1c[nH]c2ccccc12)C(=O)O` [TRYPTOPHAN], the “20mM inhibition LmjIPCS” value stood at 34%.

For the compound `C=C(C)[C@H]1CN[C@H](C(=O)O)[C@H]1CC(=O)O` [KAINIC ACID], the inhibition at 20000 µM worked out at 14%.

For the compound `CC1=C(C(=O)O)N2C(=O)[C@@H](NC(=O)[C@H](N)c3ccc(O)cc3)[C@H]2SC1` [CEFADROXIL], the “20mM inhibition LmjIPCS” value stood at 37%.

`O=c1cc(-c2ccccc2)oc2cc(O)cc(O)c12` [CHRYSIN]: the inhibition amounted to 22%.

In the case of `CCCC(=O)Nc1ccc(OCC(O)CNC(C)C)c(C(C)=O)c1` (centres unmarked) [ACEBUTOLOL], the inhibition was -2.11%.

`COc1ccc2c3c1O[C@H]1C[C@@H](O)C=C[C@@]31CCN(C)C2` [GALANTHAMINE]: the inhibition at 20000 µM was determined as 2.62%.

On to `CC[C@H](C)C(=O)O[C@H]1C[C@@H](C)C=C2C=C[C@H](C)[C@H](CC[C@@H]3C[C@@H](O)CC(=O)O3)[C@H]21` [LOVASTATIN], for which the “20mM inhibition LmjIPCS” value is 41%.

In the case of `CCOC(=O)[C@H](CCc1ccccc1)N[C@@H](C)C(=O)N1[C@H](C(=O)O)C[C@H]2CCCC[C@@H]21` [TRANDOLAPRIL], the inhibition at 20000 µM turned out to be 7.54%.

Regarding `O=C(O)CCC(=O)c1ccc(-c2ccccc2)cc1` [FENBUFEN], the inhibition at 20000 µM stood at 12%.

Take `O=c1c(O)c(-c2ccc(O)cc2O)oc2cc(O)cc(O)c12` [MORIN]: the inhibition at 20000 µM came out at 4%.

Turning to `CN[C@@H](C)[C@@H](O)c1ccccc1` [PSEUDOEPHEDRINE], the inhibition at 20000 µM came out at 2.14%.

For the compound `OC[C@H]1O[C@@H](O[C@@H]2[C@@H](CO)OC(O)(CO)[C@H]2O)[C@H](O)[C@@H](O)[C@H]1O` (mixture of isomers) [LACTULOSE], the inhibition at 20000 µM worked out at 26%.

Turning to `OCCOCCN1CCN(C(c2ccccc2)c2ccc(Cl)cc2)CC1` (centres unmarked) [HYDROXYZINE PAMOATE], the “20mM inhibition LmjIPCS” value came out at 45%.

Regarding `CN1[C@@H]2CC[C@H]1C[C@@H](OC(=O)C(CO)c1ccccc1)C2` (some centres unmarked) [ATROPINE], the inhibition at 20000 µM was determined as 26%.

Take `CCCCC1(COC(=O)CCC(=O)O)C(=O)N(c2ccccc2)N(c2ccccc2)C1=O` [SUXIBUZONE]: the inhibition came out at 7%.
